Structures can show the parent of a compound that is named as a salt. Where two headings read alike, the source gives them in different places.
Columns and labels:
[1] = system: mice exposed to radiant heat stimulus on the tail; assay: animal or person; assay type: in vivo, male mice (Charles River, CF-1/CD)
Text: (§1) The ED50 was the dose which reduced the total number of writhes by 50%. […] A modification of the tail flick test described by Dewey and Harris (in: S. Ehrenpreis and A. Neidle (eds.), Methods in Narcotics Research, Marcel Dekker, Inc., New York, 1975, pp. 101-108) was used to measure the tail flick reaction times following oral or subcutaneous administration of the compounds of formula I of the invention.
More specifically, groups of 10 male mice (Charles River, CF-1/CD, 18-22 gm) were placed in individual stainless steel, ventilated, cylindrical restrainers with their tails protruding through a hole at one end. The restraining tubes were positioned on a sliding platform so that each mouse, in turn, could be exposed to a high intensity lamp. The rays from the lamp were focused by means of a parabolic reflector directly on the tail. The intensity of the heat was adjusted by means of a rheostat so that untreated mice would responsed in approximately 2 to 4 seconds. When the endpoint response occurred (a sudden twitch of the tail, removing it from the path of the radiant heat stimulus), the experimenter stopped a reaction time clock. In the event that no response occurred within 10 seconds (the cutoff time), the tester terminated the trial and assigned a latency score of 10 seconds for that trial. The reaction time of each mouse was determined before and again 30,60,90 and 120 minutes after treatment.
Each group of 10 mice was treated orally or subcutaneously with vehicle (normal saline) or with logarithmically spaced doses of the test compounds. For most compounds, four dose levels, which were studied in a single test session, were sufficient to provide a satisfactory estimate of the ED50. Occasionally, five or six does levels were needed. […] Because of this, some vehicle control groups and dosed groups consisted of a total of 20 mice, rather than 10.
(§2) Doses were calculated as the salts of all the compounds. Injection volume was 0.1 ml/10 g body weight. For each test compound, ED 50 values were calculated separately for each test. Log dose regression analysis and Fieller's Theorem were used to compute the ED 50 and its 95 percent confidence limits. The analysis was performed on the tail flick latency scores of all mice that were treated with a test compound. For any given test, the average tail flick latency score of the vehicle control group was calculated and a latency value, Z, was derived from this, as follows: [formula] where the cutoff time was 10 seconds. […] The value of Z was entered as an interpolate into the regression analysis so that an ED50, defined as the dose that increased tail flick latencies by 50 percent of the maximum possible response, could be computed.

[2] = system: mice exposed to intra-abdominally induced chemical pain; assay: animal or person; assay type: in vivo, mouse
Description: as §1, §2

[3] = mouse, oral, dose that increased tail flick latencies by 50 percent of the maximum possible response, cutoff 10 seconds, doses as the salts, read-out: ED50 Tail Flick Oral
[4] = sc, mouse, subcutaneous, dose that increased tail flick latencies by 50 percent of the maximum possible response, cutoff 10 seconds, doses as the salts, read-out: ED50 Tail Flick Subcu.
[5] = mouse, oral, dose which reduced the total number of writhes by 50%, doses as the salts, read-out: ED50 Writhing Oral
[6] = sc, mouse, subcutaneous, dose which reduced the total number of writhes by 50%, doses as the salts, read-out: ED50 Writhing Subcu.
[7] = Mus musculus, po, read-out: ED50 Tail Flick Oral
[8] = Mus musculus, sc, read-out: ED50 Tail Flick Subcu.
[9] = Mus musculus, po, read-out: ED50 Writhing Oral
[10] = Mus musculus, sc, read-out: ED50 Writhing Subcu.

| Structure (SMILES) | ED50 [1, 3] | ED50 [1, 4] | ED50 [2, 5] | ED50 [2, 6] | ED50 [1, 7] | ED50 [1, 8] | ED50 [2, 9] | ED50 [2, 10] |
| --- | --- | --- | --- | --- | --- | --- | --- | --- |
| CC(=O)c1ccc2c(c1)[C@@]13CCCC[C@H]1[C@@H](C2)N(CCC#N)CC3.Cl [(-)-3-acetyl-17-morphinanpropanenitrile hydrochloride] | 51.2 mg/kg | 6.1 mg/kg | 4.4 mg/kg | 0.57 mg/kg | – | – | – | – |
| CCC(=O)c1ccc2c(c1)[C@@]13CCCC[C@H]1[C@@H](C2)N(C)CC3.Cl [(-)-1-(17-methylmorphinan-3-yl)-1-propanone hydrochloride] | 12 mg/kg | 2.3 mg/kg | 1.9 mg/kg | 0.22 mg/kg | – | – | – | – |
| CC(=O)c1ccc2c(c1)[C@@]13CCCC[C@H]1[C@@H](C2)N(CC=C(C)C)CC3.O.O=C(O)C(O)C(O)C(=O)O [(-)-1-[17-(3-methyl-2-butenyl)morphinan-3-yl]ethanone d-tartrate monohydrate] | – | – | – | – | 115 mg/kg | ~50 mg/kg | 43 mg/kg | 5.9 mg/kg |
| CN1CC[C@]23CCCC[C@H]2[C@H]1Cc1ccc(C(=O)c2ccccc2)cc13.O=C(O)C(O)C(O)C(=O)O [(-)-(17-methylmorphinan-3-yl)phenylmethanone d-tartrate] | – | – | – | – | > 200 mg/kg | > 50 mg/kg | 35.5 mg/kg | 22.2 mg/kg |
| CC(=O)c1ccc2c(c1)C[C@@H]1[C@@H]3CCCC[C@]23CCN1C.O=C(O)C(O)C(O)C(=O)O [(-)-2-acetyl-N-methylmorphinan d-tartrate] | – | – | – | – | 75 mg/kg | > 50 mg/kg | 22.3 mg/kg | 4 mg/kg |
| CC(=O)c1ccc2c(c1)[C@@]13CCCC[C@H]1[C@@H](C2)N(CC1CCC1)CC3.Cl [(-)-3-acetyl-N-cyclobutylmethylmorphinan hydrochloride] | 27.6 mg/kg | 4.9 mg/kg | 5.7 mg/kg | 1.2 mg/kg | – | – | – | – |
| CN1CC[C@]23CCCC[C@H]2[C@H]1Cc1ccc(C(C)(C)O)cc13 [(-)-α,α-17-trimethylmorphinan-3-methanol hydrochloride] | 12 mg/kg | 4.3 mg/kg | 2.5 mg/kg | 1.05 mg/kg | – | – | – | – |
| CC(=O)c1ccc2c(c1)[C@@]13CCCC[C@H]1[C@@H](C2)N(CC1CC1)CC3.Cl [(-)-1-[N-(cyclopropylmethyl)morphinan-3-yl]-ethanone hydrochloride] | 1.5 mg/kg | 2.3 mg/kg | 2.1 mg/kg | 0.18 mg/kg | – | – | – | – |
| CC(=O)c1ccc2c(c1)[C@@]13CCCC[C@H]1[C@@H](C2)N(CCc1ccccc1)CC3 [(-)-1-[N-(2-phenethyl)morphinan-3-yl]ethanone d-tartrate hemihydrate] | 10.4 mg/kg | 1.8 mg/kg | 1.2 mg/kg | 0.39 mg/kg | – | – | – | – |
| CC(O)c1ccc2c(c1)[C@@]13CCCC[C@H]1[C@@H](C2)N(C)CC3 (stereo partly drawn) [(-)-α-17-dimethylmorphinan-3-methanol hydrochloride] | 1.1 mg/kg | 1.3 mg/kg | 0.36 mg/kg | 0.24 mg/kg | – | – | – | – |
| CC(=O)c1ccc2c(c1)[C@@]13CCCC[C@H]1[C@@H](C2)N(C)CC3.O=C(O)C(O)C(O)C(=O)O [(-)-3-acetyl-N-methylmorphinan d-tartrate] | – | – | – | – | 2 mg/kg | 3.9 mg/kg | 0.5 mg/kg | 0.08 mg/kg |

Reference: patent US4374139A, “Levorotatory N-substituted acylmorphinans useful as analgesic agents” (priority 1981, dated 1983)
